The values that follow come from patent publication US10239835B2, “N-alkylaryl-5-oxyaryl-octahydro-cyclopenta[c]pyrrole negative allosteric modulators of NR2B” (Luc Therapeutics, Inc., priority 2014, dated 2019).

pIC50: −log10 of the molar value.

The target in assay [1] is HEK293 cells expressing NR1/NR2B (Homo sapiens (Human), UniProt Q05586+Q13224). Put plainly: NR2B NAM Assay (FDSS Ca2+ influx cell assay). As to conditions: NR2B NAM assay, class of inhibitory concentration; read-out: Activity Category. Format: cell-based. A digest of the protocol: (§1)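 Tetracycline-induced HEK293 NR1/NR2B cells (with ARL-15896), fluo-8 loaded, pre-incubated 10 min with compound (0.001–30 µM, 0.1% DMSO) before stimulation with 3 µM glutamate, 3 µM glycine, 1 mM Ca2+ in Ca/Mg-free HBSS-HEPES. Ca2+ influx recorded 3 min on FDSS; end/baseline fluorescence ratio expressed as inhibition relative to MK801.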
Sequence of HEK293 cells expressing NR1/NR2B (Homo sapiens (Human), UniProt Q05586+Q13224) (Q13224 27-1484, other chains not shown): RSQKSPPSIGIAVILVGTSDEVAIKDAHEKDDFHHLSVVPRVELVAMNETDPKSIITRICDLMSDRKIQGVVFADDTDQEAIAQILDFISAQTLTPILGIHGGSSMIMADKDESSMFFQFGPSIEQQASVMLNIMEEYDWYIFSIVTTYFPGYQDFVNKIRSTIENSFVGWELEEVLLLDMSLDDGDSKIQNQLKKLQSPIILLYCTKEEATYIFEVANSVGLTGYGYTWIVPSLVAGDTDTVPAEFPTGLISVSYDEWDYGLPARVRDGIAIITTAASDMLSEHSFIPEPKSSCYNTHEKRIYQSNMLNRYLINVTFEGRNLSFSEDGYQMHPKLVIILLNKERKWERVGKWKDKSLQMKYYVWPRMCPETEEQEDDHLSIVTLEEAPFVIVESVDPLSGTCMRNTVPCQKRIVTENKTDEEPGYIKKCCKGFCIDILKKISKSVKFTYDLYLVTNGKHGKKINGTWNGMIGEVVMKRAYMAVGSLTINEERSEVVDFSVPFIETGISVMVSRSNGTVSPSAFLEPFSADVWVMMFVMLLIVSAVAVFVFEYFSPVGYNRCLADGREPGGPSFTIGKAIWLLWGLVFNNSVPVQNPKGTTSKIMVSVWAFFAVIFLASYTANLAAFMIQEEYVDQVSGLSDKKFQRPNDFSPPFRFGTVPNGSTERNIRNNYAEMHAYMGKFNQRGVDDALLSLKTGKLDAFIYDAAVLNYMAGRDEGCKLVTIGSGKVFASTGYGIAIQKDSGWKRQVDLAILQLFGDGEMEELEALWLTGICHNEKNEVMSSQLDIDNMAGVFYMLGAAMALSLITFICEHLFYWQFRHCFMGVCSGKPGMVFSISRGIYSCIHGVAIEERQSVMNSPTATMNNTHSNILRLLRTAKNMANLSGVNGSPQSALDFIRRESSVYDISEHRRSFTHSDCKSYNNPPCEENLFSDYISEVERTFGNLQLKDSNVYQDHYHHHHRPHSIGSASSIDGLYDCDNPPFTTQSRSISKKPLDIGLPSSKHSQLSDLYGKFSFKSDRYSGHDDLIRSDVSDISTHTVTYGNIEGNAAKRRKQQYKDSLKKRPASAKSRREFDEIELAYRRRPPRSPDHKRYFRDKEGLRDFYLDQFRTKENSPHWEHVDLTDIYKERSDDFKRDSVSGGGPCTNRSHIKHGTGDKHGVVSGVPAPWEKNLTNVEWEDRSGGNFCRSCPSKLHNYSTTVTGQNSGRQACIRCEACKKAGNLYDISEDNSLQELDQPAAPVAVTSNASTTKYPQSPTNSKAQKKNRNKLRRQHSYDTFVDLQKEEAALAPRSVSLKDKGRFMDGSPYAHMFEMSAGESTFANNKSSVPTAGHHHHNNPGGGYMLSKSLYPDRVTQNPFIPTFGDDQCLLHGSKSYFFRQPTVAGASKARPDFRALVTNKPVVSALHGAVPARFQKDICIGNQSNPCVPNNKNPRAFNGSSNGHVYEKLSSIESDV

Assay [2] addresses HEK293 cells expressing NR1/NR2B (Homo sapiens (Human), UniProt Q13224). The assay can be described thus: NR2B NAM Assay (FDSS Ca2+ influx cell assay). The assay is classed as cell-based. The settings on record: Ca2+ influx inhibition relative to MK801; 3 μM glutamate, 3 μM glycine, 1 mM Ca2+; read-out: NR2B NAM IC50. In a few lines:
as §1

Sequence of HEK293 cells expressing NR1/NR2B (Homo sapiens (Human), UniProt Q13224) (Q13224 27-1484, other chains not shown): as above

Consider `COc1ccc(O[C@@H]2C[C@@H]3CN(CC(O)c4ccc(O)c(F)c4)C[C@@H]3C2)cc1` (stereo partly drawn), for which the pIC50 is > 7.00 in assay [1] and 7.08 in assay [2].
For `O=C(CN1C[C@H]2C[C@@H](Oc3ccc(F)cc3)C[C@H]2C1)c1ccc(O)c(F)c1`, in that order: > 7.00 and 7.27.
For `OC(CN1C[C@H]2C[C@H](Oc3ccc(F)cc3)C[C@H]2C1)c1cn[nH]c1` (stereo partly drawn) [drawing 256], the pIC50 in assay [1] was 5.00 to 6.00; in assay [2] it was 5.31.
